{"source": "paper PMC12383145", "about": "“Fluorescent Peptides Internalize HeLa Cells and Kill Multidrug-Resistant Clinical Bacterial Isolates” (Antibiotics, 2025)", "assay_type_in_all_cases": "cell-based", "key": {"[1]": {"test_system": "E. coli clinical isolate 1004 (susceptible)", "details": "clinical isolate 1004 (susceptible, 24 h)"}, "[2]": {"test_system": "E. coli clinical isolate 129797 (resistant)", "details": "clinical isolate 129797 (resistant, 24 h)"}, "[3]": {"test_system": "E. coli clinical isolate 301755 (MDR)", "details": "clinical isolate 301755 (MDR, 24 h)"}, "[4]": {"test_system": "E. faecalis clinical isolate 179", "details": "clinical isolate 179, 24 h"}, "[5]": {"test_system": "E. faecalis clinical isolate 213", "details": "clinical isolate 213, 24 h"}, "[6]": {"test_system": "E. faecalis clinical isolate 82", "details": "clinical isolate 82, 24 h"}, "[7]": {"test_system": "S. aureus clinical isolate 109095", "details": "clinical isolate 109095, 24 h"}, "[8]": {"test_system": "S. aureus clinical isolate 124653", "details": "clinical isolate 124653, 24 h"}}, "note": "Residues, ends and D or L forms follow the SMILES beside them. *: point of attachment. RhodamineB = CCN(CC)c1ccc2c(-c3ccccc3C(=O)*)c3ccc(=[N+](CC)CC)cc-3oc2c1", "data": [{"compound": "CCN(CC)c1ccc2c(-c3ccccc3C(=O)N[C@@H](CCCNC(=N)N)C(=O)N[C@@H](Cc3c[nH]c4ccccc34)C(=O)N[C@@H](CCC(N)=O)C(=O)N[C@@H](Cc3c[nH]c4ccccc34)C(=O)N[C@@H](CCCNC(=N)N)C(=O)N[C@@H](Cc3c[nH]c4ccccc34)C(=O)N[C@@H](CCC(N)=O)C(=O)N[C@@H](Cc3c[nH]c4ccccc34)C(=O)N[C@@H](CCCNC(=N)N)C(N)=O)c3ccc(=[N+](CC)CC)cc-3oc2c1", "note": "[RhB-1, RhB-RWQWRWQWR] (RhodamineB-RWQWRWQWR-NH2)", "values": [{"measurement": "Minimal bactericidal concentration (MBC)", "setting": "[1]", "value": "> 105", "unit": "µM"}, {"measurement": "Minimal inhibitory concentration (MIC)", "setting": "[1]", "value": "> 105", "unit": "µM"}, {"measurement": "Minimal bactericidal concentration (MBC)", "setting": "[2]", "value": "> 105", "unit": "µM"}, {"measurement": "Minimal inhibitory concentration (MIC)", "setting": "[2]", "value": "> 105", "unit": "µM"}, {"measurement": "Minimal bactericidal concentration (MBC)", "setting": "[3]", "value": "> 105", "unit": "µM"}, {"measurement": "Minimal inhibitory concentration (MIC)", "setting": "[3]", "value": "> 105", "unit": "µM"}, {"measurement": "Minimal bactericidal concentration (MBC)", "setting": "[4]", "value": "> 105", "unit": "µM"}, {"measurement": "Minimal inhibitory concentration (MIC)", "setting": "[4]", "value": "> 105", "unit": "µM"}, {"measurement": "Minimal bactericidal concentration (MBC)", "setting": "[5]", "value": "> 105", "unit": "µM"}, {"measurement": "Minimal inhibitory concentration (MIC)", "setting": "[5]", "value": "> 105", "unit": "µM"}, {"measurement": "Minimal bactericidal concentration (MBC)", "setting": "[6]", "value": 105, "unit": "µM"}, {"measurement": "Minimal inhibitory concentration (MIC)", "setting": "[6]", "value": 26, "unit": "µM"}, {"measurement": "Minimal bactericidal concentration (MBC)", "setting": "[7]", "value": 105, "unit": "µM"}, {"measurement": "Minimal inhibitory concentration (MIC)", "setting": "[7]", "value": 26, "unit": "µM"}, {"measurement": "Minimal bactericidal concentration (MBC)", "setting": "[8]", "value": 105, "unit": "µM"}, {"measurement": "Minimal inhibitory concentration (MIC)", "setting": "[8]", "value": 105, "unit": "µM"}]}]}
